The target in assay [1] is Sphingosine 1-phosphate receptor 3 (Homo sapiens, UniProt Q99500). The assay is described as follows: Late stage counterscreen assay for S1P4 antagonists: Fluorescence dose response cell-based screening assay for antagonists of the Sphingosine 1-Phosphate Receptor 3 (S1P3). [Related pubchem assays (depositor defined):AID1510, AID1524, AID1692, AID1853, AID2332, AID489009, AID489017]. Format: functional.

In assay [2] the target is Sphingosine 1-phosphate receptor 2 (Homo sapiens, UniProt O95136). The assay is described as follows: Late stage counterscreen assay for S1P4 antagonists: Fluorescence dose response cell-based screening assay for antagonists of the Sphingosine 1-Phosphate Receptor 2 (S1P2). [Related pubchem assays (depositor defined):AID1510, AID1524, AID1692, AID1853, AID2332, AID489009, AID489017]. The format is functional. For orientation: Counterscreens check selectivity or assay interference.

For assay [3], the target named is Sphingosine 1-phosphate receptor 1 (Homo sapiens, UniProt P21453). The assay is described as follows: Late stage counterscreen assay for S1P4 antagonists: Fluorescence dose response cell-based screening assay for antagonists of the Sphingosine 1-Phosphate Receptor 1 (S1P1). [Related pubchem assays (depositor defined):AID1510, AID1524, AID1692, AID1853, AID2332, AID489009, AID489017]. Format: functional.

Assay [4] addresses Sphingosine 1-phosphate receptor 5 (Homo sapiens, UniProt Q9H228). Description: Late stage counterscreen assay for S1P4 antagonists: Fluorescence dose response cell-based screening assay for antagonists of the Sphingosine 1-Phosphate Receptor 5 (S1P5). [Related pubchem assays (depositor defined):AID1510, AID1524, AID1692, AID1853, AID2332, AID489009, AID489017]. The format is functional.

Assay [5] concerns the target T1, Nucleotide-binding oligomerization domain-containing protein 1 (Homo sapiens, UniProt Q9Y239).
T1 sequence (Q9Y239 whole entry): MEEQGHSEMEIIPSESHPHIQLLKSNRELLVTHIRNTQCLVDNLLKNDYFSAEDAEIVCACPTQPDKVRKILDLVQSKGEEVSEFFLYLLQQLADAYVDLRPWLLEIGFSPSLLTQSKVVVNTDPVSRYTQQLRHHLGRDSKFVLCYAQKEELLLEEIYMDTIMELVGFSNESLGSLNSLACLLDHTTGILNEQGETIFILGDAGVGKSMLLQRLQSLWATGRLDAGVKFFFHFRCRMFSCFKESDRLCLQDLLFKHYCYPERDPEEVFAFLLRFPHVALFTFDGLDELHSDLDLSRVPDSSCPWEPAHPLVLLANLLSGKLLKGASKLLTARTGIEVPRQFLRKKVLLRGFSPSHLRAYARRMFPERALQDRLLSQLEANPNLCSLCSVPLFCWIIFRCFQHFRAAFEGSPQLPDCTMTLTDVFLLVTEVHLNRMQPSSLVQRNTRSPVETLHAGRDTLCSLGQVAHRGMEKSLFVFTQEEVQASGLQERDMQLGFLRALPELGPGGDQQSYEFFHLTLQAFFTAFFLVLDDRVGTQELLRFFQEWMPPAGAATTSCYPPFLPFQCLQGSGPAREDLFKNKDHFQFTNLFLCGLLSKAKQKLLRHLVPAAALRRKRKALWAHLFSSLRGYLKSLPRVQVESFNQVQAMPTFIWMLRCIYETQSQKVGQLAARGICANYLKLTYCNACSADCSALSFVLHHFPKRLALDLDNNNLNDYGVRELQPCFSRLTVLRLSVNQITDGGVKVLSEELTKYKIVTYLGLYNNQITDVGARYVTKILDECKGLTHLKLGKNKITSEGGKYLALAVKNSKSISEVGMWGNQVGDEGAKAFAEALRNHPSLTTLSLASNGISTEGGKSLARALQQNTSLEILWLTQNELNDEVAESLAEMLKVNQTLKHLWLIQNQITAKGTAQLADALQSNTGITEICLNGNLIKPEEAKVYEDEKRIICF
Description: NOD1 signaling inhibitors, SAR follow-up, revised (AID 2333). The format is functional.

For a further assay, the system named is HEK293. The assay is described as follows: cells. Particulars: Homo sapiens.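 Also: cells exposed to compound for 14 hours overnight before viability readout.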
Assay [6] concerns the target Nucleotide-binding oligomerization domain-containing protein 2 (Homo sapiens, UniProt Q9HC29). The assay is described as follows: PubChem AID 2334. The format is functional.
The next assay deals with Tumor necrosis factor (Homo sapiens, UniProt P01375). Description: TNFa-triggered NF-kB activation inhibitors, SAR follow-up, cell-based, revised (AID 2337). The format is functional.
Assay [7] concerns the target T2, Kappa-type opioid receptor (Homo sapiens, UniProt P41145). Description: KOR agonist analogs, imaging readout, SAR follow-up, image-based (AID 2359). Format: functional.
The target in assay [8] is T3, Delta-type opioid receptor (Homo sapiens, UniProt P41143). The assay is described as follows: DOR agonists, SAR follow-up, image-based (AID 2370). The format is functional.
Assay [9] has as its target T2, Kappa-type opioid receptor. Description: KOR antagonists by imaging, SAR follow-up, image-based (AID 2348). Format: functional.
Assay [10] concerns the target T4, Mu-type opioid receptor (Homo sapiens, UniProt P35372). The assay is described as follows: MOR agonists by imaging, SAR follow-up, image-based (AID 2352). The format is functional.
The target in assay [11] is T3, Delta-type opioid receptor. The assay is described as follows: DOR antagonists, SAR follow-up, image-based (AID 2357). The format is functional.
The target in assay [12] is T4, Mu-type opioid receptor. The assay is described as follows: MOR antagonists, SAR follow-up, image-based (AID 2420).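 Also: compounds added before stimulation of receptor with agonist DAMGO.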 The format is functional.
The target in assay [13] is T2, Kappa-type opioid receptor. The assay is described as follows: kappa opioid receptor blockers, cell-based, luminescence, beta-arrestin, SAR follow-up (AID 2285). The format is functional.

SMILES strings stand for the structures. Activity calls are given as the source filed them.

T2 sequence (P41145 whole entry): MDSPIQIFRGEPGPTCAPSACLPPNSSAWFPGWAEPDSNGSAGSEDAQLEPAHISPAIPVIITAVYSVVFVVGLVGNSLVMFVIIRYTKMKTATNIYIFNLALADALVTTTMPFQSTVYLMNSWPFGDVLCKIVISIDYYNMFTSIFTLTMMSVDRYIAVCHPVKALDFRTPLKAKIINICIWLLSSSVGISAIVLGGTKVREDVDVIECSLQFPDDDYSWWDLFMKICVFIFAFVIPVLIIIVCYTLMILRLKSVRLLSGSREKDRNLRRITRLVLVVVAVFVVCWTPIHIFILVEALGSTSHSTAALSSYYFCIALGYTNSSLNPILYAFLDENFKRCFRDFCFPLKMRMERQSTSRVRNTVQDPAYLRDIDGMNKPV
T4 sequence (P35372 whole entry): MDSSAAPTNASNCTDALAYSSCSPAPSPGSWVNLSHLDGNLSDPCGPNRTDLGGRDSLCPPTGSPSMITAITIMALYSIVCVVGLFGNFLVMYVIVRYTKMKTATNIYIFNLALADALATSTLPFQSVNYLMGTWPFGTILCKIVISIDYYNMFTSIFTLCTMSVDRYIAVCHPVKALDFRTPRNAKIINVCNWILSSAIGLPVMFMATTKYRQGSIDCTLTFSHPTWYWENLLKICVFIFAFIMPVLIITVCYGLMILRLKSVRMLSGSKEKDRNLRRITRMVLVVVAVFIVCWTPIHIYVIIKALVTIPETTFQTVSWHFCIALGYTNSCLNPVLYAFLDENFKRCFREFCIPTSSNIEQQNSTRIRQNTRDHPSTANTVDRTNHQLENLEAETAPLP
T3 sequence (P41143 whole entry): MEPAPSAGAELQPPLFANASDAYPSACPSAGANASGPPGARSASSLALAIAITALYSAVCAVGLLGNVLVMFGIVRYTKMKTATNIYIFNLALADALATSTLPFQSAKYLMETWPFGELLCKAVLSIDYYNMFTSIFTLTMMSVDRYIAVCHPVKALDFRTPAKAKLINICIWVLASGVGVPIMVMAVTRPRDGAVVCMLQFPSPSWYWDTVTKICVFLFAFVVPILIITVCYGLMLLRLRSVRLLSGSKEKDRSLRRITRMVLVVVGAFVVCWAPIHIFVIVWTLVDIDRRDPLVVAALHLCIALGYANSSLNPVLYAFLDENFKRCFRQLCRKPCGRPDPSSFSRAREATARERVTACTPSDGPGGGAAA
Sequence of Sphingosine 1-phosphate receptor 5 (Q9H228 whole entry): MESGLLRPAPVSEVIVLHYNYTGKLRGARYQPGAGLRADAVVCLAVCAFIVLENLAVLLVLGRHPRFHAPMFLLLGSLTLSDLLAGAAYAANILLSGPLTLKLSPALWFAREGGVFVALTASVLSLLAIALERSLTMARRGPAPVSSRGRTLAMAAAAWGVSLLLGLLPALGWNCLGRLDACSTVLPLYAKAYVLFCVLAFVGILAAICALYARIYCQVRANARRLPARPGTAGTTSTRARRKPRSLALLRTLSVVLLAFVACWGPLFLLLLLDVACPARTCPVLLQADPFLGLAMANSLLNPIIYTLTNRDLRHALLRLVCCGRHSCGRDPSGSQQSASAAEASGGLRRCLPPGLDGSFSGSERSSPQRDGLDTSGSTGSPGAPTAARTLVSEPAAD
Sequence of Sphingosine 1-phosphate receptor 1 (P21453 whole entry): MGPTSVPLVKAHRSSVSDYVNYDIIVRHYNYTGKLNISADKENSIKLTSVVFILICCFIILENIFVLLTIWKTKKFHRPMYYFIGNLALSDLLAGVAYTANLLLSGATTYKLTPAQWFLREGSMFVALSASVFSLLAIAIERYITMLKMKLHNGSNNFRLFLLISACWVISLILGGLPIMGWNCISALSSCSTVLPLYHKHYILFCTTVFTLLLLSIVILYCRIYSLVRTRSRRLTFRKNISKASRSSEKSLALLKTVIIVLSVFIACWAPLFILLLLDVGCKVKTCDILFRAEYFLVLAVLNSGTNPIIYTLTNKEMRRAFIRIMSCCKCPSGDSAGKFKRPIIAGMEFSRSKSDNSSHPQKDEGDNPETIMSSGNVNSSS
Sequence of Tumor necrosis factor (P01375 whole entry): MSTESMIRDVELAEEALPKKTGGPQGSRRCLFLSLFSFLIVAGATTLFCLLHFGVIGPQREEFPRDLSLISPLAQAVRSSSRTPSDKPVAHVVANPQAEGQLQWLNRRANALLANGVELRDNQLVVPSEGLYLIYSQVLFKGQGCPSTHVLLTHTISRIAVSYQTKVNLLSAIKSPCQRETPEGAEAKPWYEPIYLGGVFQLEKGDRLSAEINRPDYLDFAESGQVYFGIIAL
Sequence of Sphingosine 1-phosphate receptor 2 (O95136 whole entry): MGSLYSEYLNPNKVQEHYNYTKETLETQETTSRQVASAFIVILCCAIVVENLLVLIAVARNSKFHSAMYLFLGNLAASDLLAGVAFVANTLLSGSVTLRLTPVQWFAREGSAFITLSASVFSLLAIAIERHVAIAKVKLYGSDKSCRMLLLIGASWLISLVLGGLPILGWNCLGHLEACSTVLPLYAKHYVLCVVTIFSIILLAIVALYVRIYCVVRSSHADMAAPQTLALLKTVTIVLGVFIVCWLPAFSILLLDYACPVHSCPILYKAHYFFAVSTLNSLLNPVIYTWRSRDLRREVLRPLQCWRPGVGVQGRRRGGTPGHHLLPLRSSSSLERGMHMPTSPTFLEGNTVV
Sequence of Sphingosine 1-phosphate receptor 3 (Q99500 whole entry): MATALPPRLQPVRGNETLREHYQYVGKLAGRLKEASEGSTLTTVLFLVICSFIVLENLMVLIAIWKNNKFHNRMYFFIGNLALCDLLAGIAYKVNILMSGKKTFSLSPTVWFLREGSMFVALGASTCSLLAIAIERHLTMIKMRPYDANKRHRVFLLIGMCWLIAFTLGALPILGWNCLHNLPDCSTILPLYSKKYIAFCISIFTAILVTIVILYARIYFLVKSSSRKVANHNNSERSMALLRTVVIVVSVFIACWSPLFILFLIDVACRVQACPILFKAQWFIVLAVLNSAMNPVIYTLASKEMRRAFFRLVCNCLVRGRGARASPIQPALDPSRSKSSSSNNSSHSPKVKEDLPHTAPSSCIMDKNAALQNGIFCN
Sequence of Nucleotide-binding oligomerization domain-containing protein 2 (Q9HC29 whole entry, the tested form may be a part): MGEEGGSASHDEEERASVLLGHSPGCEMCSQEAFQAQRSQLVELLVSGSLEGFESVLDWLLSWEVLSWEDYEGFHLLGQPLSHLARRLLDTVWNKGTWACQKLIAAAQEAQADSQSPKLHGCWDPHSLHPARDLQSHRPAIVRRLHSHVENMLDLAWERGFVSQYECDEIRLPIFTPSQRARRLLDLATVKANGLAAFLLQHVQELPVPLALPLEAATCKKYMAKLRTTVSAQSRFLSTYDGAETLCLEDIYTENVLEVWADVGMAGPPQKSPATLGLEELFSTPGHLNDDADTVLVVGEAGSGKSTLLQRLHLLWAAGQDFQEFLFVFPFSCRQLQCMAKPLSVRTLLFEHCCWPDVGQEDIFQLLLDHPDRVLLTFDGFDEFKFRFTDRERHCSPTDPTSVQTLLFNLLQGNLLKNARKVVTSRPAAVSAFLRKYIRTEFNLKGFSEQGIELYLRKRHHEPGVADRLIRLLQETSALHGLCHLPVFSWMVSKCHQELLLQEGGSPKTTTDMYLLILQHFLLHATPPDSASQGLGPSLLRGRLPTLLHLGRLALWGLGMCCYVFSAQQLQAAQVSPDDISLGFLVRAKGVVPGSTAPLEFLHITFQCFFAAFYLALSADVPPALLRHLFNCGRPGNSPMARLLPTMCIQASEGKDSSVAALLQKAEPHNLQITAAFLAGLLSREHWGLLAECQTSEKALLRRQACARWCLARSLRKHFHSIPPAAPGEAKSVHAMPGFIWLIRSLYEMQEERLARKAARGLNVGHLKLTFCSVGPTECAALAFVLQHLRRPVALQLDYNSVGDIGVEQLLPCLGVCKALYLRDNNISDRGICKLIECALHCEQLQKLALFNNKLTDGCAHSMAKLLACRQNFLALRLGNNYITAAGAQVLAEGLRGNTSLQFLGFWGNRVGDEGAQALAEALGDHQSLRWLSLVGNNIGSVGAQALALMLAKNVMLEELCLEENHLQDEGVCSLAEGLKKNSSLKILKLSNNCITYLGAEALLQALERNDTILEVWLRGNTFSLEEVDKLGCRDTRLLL

With `COc1cccc(C)c1NC(=O)c1ccc(-c2cc(Cl)ccc2Cl)o1`, the IC50 (in general, the concentration that gives 50% inhibition) is 9.87 µM (active) in assay [1], 4.77 µM (active) in assay [2], 9.31 µM (active) in assay [3] and 11.2 µM (inactive) in assay [4].
Regarding `CC(=O)Nc1nc2ccccc2n1S(=O)(=O)c1ccc(C)cc1`, the IC50 in assay [5] was 3.8 µM (active); in the assay with HEK293, > 20 µM (inactive); in assay [6], > 20 µM (inactive); on Tumor necrosis factor, > 20 µM (inactive).
Turning to `O=C(NC(NC(=S)Nc1cccc(Br)c1)C(Cl)(Cl)Cl)OCc1ccccc1` (stereo not given), the EC50 (in [7]; in assay [8]; on Mu-type opioid receptor [10]) was > 32 µM (inactive) throughout. Moreover, the IC50 in [9] is > 32 µM (inactive); in assay [11], > 32 µM (inactive); at Mu-type opioid receptor [12] it was > 32 µM (inactive); in assay [13] it was > 10 µM (inactive).

The values are drawn from ChEMBL document CHEMBL1201862, “PubChem BioAssay data set” (2004).
